Like-named read-outs stand apart in the source and are kept apart here.
How the values were obtained:
[1] = tested on: K. pneumoniae strains with elevated MICs to Polymyxin B; experiment: MIC against strains with elevated MICs to Polymyxin B; type: cell-based, Klebsiella pneumoniae; details: for MIC K. pneumoniae 062: strain 062, elevated MIC to Polymyxin B; for MIC K. pneumoniae 063: strain 063, elevated MIC to Polymyxin B; for MIC K. pneumoniae 064: strain 064, elevated MIC to Polymyxin B; for MIC K. pneumoniae 655: strain 655, elevated MIC to Polymyxin B
How it was run: (§1)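 Polymyxin B-resistant isolates were inoculated from 0.5 McFarland suspensions of 18-24 hour Mueller-Hinton agar colonies. Testing was done twice per compound, and results disagreeing by over 2-fold were discarded as non-valid. For compounds assayed several times, the modal MIC is given.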

[2] = tested on: Acinetobacter baumannii NCTC 13301; details: mouse thigh, 16 h model
K. pneumoniae [3] = experiment: MIC in 1:1 (wt:wt) combination with Rifampicin; type: cell-based, Klebsiella pneumoniae; details: 1:1 (wt:wt) with Rifampicin, total drug concentration
Procedure: (§2) The inoculum was prepared by making a direct suspension of isolated colonies (selected from an 18-24 hour Mueller-Hinton agar plate) adjusted to the 0.5 McFarland standard. […] The assays were performed in duplicate. […] In cases where the duplicate values varied by less than 2-fold, the lower of the two values is reported. If a variation of greater than 2-fold was observed, the assay was considered non-valid. Several of the compounds were subjected to multiple tests, and where this is the case, the MIC reflects the modal value obtained.
(§3) MIC values (microgram/mL) refer to the total drug concentration (i.e. test agent plus Rifampicin).

[4] = tested on: A. baumanii strains with elevated MICs to Polymyxin B; experiment: MIC against strains with elevated MICs to Polymyxin B; type: cell-based, Acinetobacter baumannii
How it was run: as §1

P. aeruginosa = experiment: MIC in 1:1 (wt:wt) combination with Rifampicin; type: cell-based, Pseudomonas aeruginosa; details: 1:1 (wt:wt) with Rifampicin, total drug concentration
Procedure: as §2, §3

A. baumannii [5] = tested on: A. baumannii
HK-2 cell line = experiment: In vitro renal cell toxicity assay (resazurin reduction); details: HK-2 cell IC50 expressed relative to the value for polymyxin B
Procedure: MICs were determined as described herein. HK-2 cell IC50 values were determined as described herein. Values are reported relative to Polymyxin B.

[6] = tested on: Pseudomonas aeruginosa ATCC 27853; type: in vivo; details: mouse lungs, P. aeruginosa ATCC 27853, SC at 2, 6 and 10 h post-infection, 16 h infection model
Procedure: Groups of 7 male neutropenic specific-pathogen-free CD-1 mice weighing 21.5-27.5 g were used. On Day 0, animals were infected with 0.04 mL inoculum by intranasal instillation into mouse nostrils and were kept in an upright position on a string rack for ˜10 min post-infection. […] At 2 h, the CFU count was determined from 3 mice and the remaining mice (7 per test compound groups) were treated with a subcutaneous injection of the drug at +2, 6 and 10 hr post-infection. Test compounds and the comparator polymyxin B were administered at four concentrations (2.6, 8.6, 17.2 and 25.8 mg/kg free base). The vehicle control group (7 mice) was treated with 0.9% saline for injection at 2, 6 and 10 h post-infection.
(§4) Sixteen hours after infection, the mice were euthanized humanely. The lungs of each animal were harvested, homogenized and quantitatively cultured onto CLED agar for CFU determination. Decrease of the total CFU compared to control counts at 16 h post-infection was determined for each dose group.
The in vivo efficacy of 4 compounds of the invention (D25, D36, D42 and D50) was evaluated in a mouse lung infection model of P. aeruginosa ATCC 27853. The model was setup as described above with the exception that groups of up to 8 mice were inoculated through intranasal instillation of ˜2.5×10^6 CFUs of P. aeruginosa isolate ATCC 27853 (1.0×10^5 CFU/lung). Test compounds were administered at two concentrations (equivalent to 4.3 and 17.2 mg/kg free base). Three dose levels of polymyxin B sulfate were used as comparator (equivalent to 4.3, 8.6 and 17.2 mg/kg free base).

A. baumannii [7] = experiment: MIC in the presence of […] of rifampicin; type: cell-based, Acinetobacter baumannii; details: A. baumannii ATCC BAA-747, Table 5C
[8] = tested on: Acinetobacter baumannii NCTC 13301; details: mouse lungs, A. baumannii NCTC 13301, SC at 2, 6 and 10 h post-infection, 16 h infection model
Procedure: On Day 0, animals were infected with 0.04 mL inoculum by intranasal instillation into mouse nostrils and were kept in an upright position on a string rack for ˜10 min post-infection. […] The vehicle control group (7 mice) was treated with 0.9% saline for injection at 2, 6 and 10 h post-infection.
as §4

K. pneumoniae [9] = tested on: K. pneumoniae

Polymyxin B [PMB, reference compound]
MIC K. pneumoniae 062 ([1]; Table 6D): 128 micrograms/mL | MIC K. pneumoniae 062 ([1]; Table 6F): 128 micrograms/mL | MIC K. pneumoniae 063 ([1]; Table 6D): 32 micrograms/mL | MIC K. pneumoniae 063 ([1]; Table 6F): 32 micrograms/mL | MIC K. pneumoniae 064 ([1]; Table 6D): 8 micrograms/mL | MIC K. pneumoniae 064 ([1]; Table 6F): 8 micrograms/mL | MIC K. pneumoniae 655 ([1]; Table 6D): 32 micrograms/mL | MIC K. pneumoniae 655 ([1]; Table 6F): 32 micrograms/mL | Mean log10 CFU reduction vs. control ([2]; 0.215 mg/kg/dose free base SC at 2, 6 and 10 h post-infection): 0.17 log10 CFU | Mean log10 CFU reduction vs. control ([2]; 0.86 mg/kg/dose free base SC at 2, 6 and 10 h post-infection): 1.64 log10 CFU | Mean log10 CFU reduction vs. control ([2]; 2.6 mg/kg/dose free base SC at 2, 6 and 10 h post-infection): 5.44 log10 CFU | Mean log10 CFU reduction vs. control ([2]; 8.6 mg/kg/dose free base SC at 2, 6 and 10 h post-infection): 6.15 log10 CFU | Mean log10 CFU reduction vs. control ([2]; 17.2 mg/kg/dose free base SC at 2, 6 and 10 h post-infection): 6.53 log10 CFU | MIC in 1:1 combination with rifampicin, K. pneumoniae 062 (K. pneumoniae [3]; K. pneumoniae 062): 1 microgram/mL | MIC in 1:1 combination with rifampicin, K. pneumoniae CCUG 59348 (K. pneumoniae [3]; K. pneumoniae CCUG 59348): 1 microgram/mL | MIC A. baumannii 053 ([4]; strain 053, elevated MIC to Polymyxin B, Table 6D): 128 micrograms/mL | MIC A. baumanii 053 ([4]; strain 053, elevated MIC to Polymyxin B, Table 6F): 128 micrograms/mL | MIC A. baumannii 056 ([4]; strain 056, elevated MIC to Polymyxin B, Table 6D): 32 micrograms/mL | MIC A. baumanii 056 ([4]; strain 056, elevated MIC to Polymyxin B, Table 6F): 32 micrograms/mL | MIC A. baumannii 068 ([4]; strain 068, elevated MIC to Polymyxin B, Table 6D): 8 micrograms/mL | MIC A. baumanii 068 ([4]; strain 068, elevated MIC to Polymyxin B, Table 6F): 8 micrograms/mL | MIC A. baumannii 070 ([4]; strain 070, elevated MIC to Polymyxin B, Table 6D): 32 micrograms/mL | MIC A. baumanii 070 ([4]; strain 070, elevated MIC to Polymyxin B, Table 6F): 32 micrograms/mL | MIC in 1:1 combination with rifampicin, P. aeruginosa 063 (P. aeruginosa; P. aeruginosa 063): 16 microgram/mL | MIC in 1:1 combination with rifampicin, P. aeruginosa 068 (P. aeruginosa; P. aeruginosa 068): 1 microgram/mL | MIC (E. coli; E. coli ATCC 25922): 0.25 µg/mL | MIC, E. coli ATCC 25922 (E. coli; E. coli ATCC 25922, absence of a second agent, Table 6B): 0.25 micrograms/mL | MIC (E. coli; E. coli NCTC 13441): 0.25 µg/mL | MIC, E. coli NCTC 13441 (E. coli; E. coli NCTC 13441, absence of a second agent, Table 6B): 0.25 micrograms/mL | MIC, E. coli ATCC 25922 (E. coli; strain ATCC 25922, compound alone): 0.25 micrograms/mL | MIC E. coli CCUG 59342 (E. coli; strain CCUG 59342, compound alone): 0.125 micrograms/mL | MIC (A. baumannii [5]; A. baumannii ATCC BAA-747): 0.25 µg/mL | MIC, A. baumannii ATCC BAA-747 (A. baumannii [5]; A. baumannii ATCC BAA-747, absence of a second agent, Table 6B): 0.25 micrograms/mL | MIC (A. baumannii [5]; A. baumannii NCTC 13424): 0.5 µg/mL | MIC, A. baumannii NCTC 13424 (A. baumannii [5]; A. baumannii NCTC 13424, absence of a second agent, Table 6B): 0.5 micrograms/mL | MIC, A. baumannii ATCC BAA-747 (A. baumannii [5]; strain ATCC BAA-747, compound alone): 0.25 micrograms/mL | MIC, A. baumannii NCTC 13424 (A. baumannii [5]; strain NCTC 13424, compound alone): 0.5 micrograms/mL | HK-2 rel to PMB (HK-2 cell line): 1 | Mean log10 CFU reduction vs. control ([6]; 8.6 mg/kg/dose free base): 1.46 log10 CFU | Mean log10 CFU reduction vs. control ([6]; 17.2 mg/kg/dose free base): 2.87 log10 CFU | MIC in combination with Rifampicin, A. baumannii ATCC BAA-747 (A. baumannii [7]): 0.03 micrograms/mL | Mean log10 CFU reduction vs. control ([8]; 2.6 mg/kg/dose free base): 0.79 log10 CFU | Mean log10 CFU reduction vs. control ([8]; 8.6 mg/kg/dose free base): 0.58 log10 CFU | Mean log10 CFU reduction vs. control ([8]; 17.2 mg/kg/dose free base): 0.54 log10 CFU | Mean log10 CFU reduction vs. control ([8]; 25.8 mg/kg/dose free base): 1.10 log10 CFU | MIC (K. pneumoniae [9]; K. pneumoniae ATCC 4352): 0.25 µg/mL | MIC, K. pneumoniae ATCC 4352 (K. pneumoniae [9]; K. pneumoniae ATCC 4352, absence of a second agent, Table 6B): 0.25 micrograms/mL | MIC (K. pneumoniae [9]; K. pneumoniae ATCC BAA-2146): 0.5 µg/mL | MIC, K. pneumoniae ATCC BAA-2146 (K. pneumoniae [9]; K. pneumoniae ATCC BAA-2146, absence of a second agent, Table 6B): 0.5 micrograms/mL | MIC, K. pneumoniae ATCC 4352 (K. pneumoniae [9]; strain ATCC 4352, compound alone): 0.25 micrograms/mL | MIC, K. pneumoniae ATCC BAA-2146 (K. pneumoniae [9]; strain ATCC BAA-2146, compound alone): 0.5 micrograms/mL

From patent US20210221848A1, “POLYMYXIN DERIVATIVES AND THEIR USE IN COMBINATION THERAPY TOGETHER WITH DIFFERENT ANTIBIOTICS” (priority 2014, published 2021)
